Laboratory results taken from article PMC6364417, “Kinase inhibitor library screening identifies synergistic drug combinations effective in sensitive and resistant melanoma cells” (Journal of Experimental & Clinical Cancer Research : CR, 2019).
Like-named read-outs stand apart in the source and are kept apart here.

Columns and labels:
[1] = tested on: IGR37-GP cells (Dabrafenib-resistant); experiment: Dose-response curves and IC50, PrestoBlue cell viability, 72 h; conditions: read-out: Half-maximal inhibitory concentration (IC50)
[2] = tested on: IGR37-XP cells (Vemurafenib-resistant); experiment: as above; conditions: read-out: Half-maximal inhibitory concentration (IC50)
[3] = tested on: 501Mel-XP cells (Vemurafenib-resistant); experiment: as above; conditions: read-out: Half-maximal inhibitory concentration (IC50)
[4] = tested on: 501Mel-GP cells (Dabrafenib-resistant); experiment: as above; conditions: read-out: Half-maximal inhibitory concentration (IC50)
[5] = tested on: A375-GP cells (Dabrafenib-resistant); experiment: as above; assay type: cell-based, human; conditions: n.e. = did not suppress growth below 50% in the tested concentration range; for IC50: read-out: Half-maximal inhibitory concentration value (IC50), Mean
[6] = tested on: A375-XP cells (Vemurafenib-resistant); experiment: as above; assay type: cell-based, human; conditions: n.e. = did not suppress growth below 50% in the tested concentration range; for IC50: read-out: Half-maximal inhibitory concentration value (IC50), Mean
[7] = tested on: IGR37 cells (parental); experiment: as above; conditions: read-out: Half-maximal inhibitory concentration (IC50)
[8] = tested on: 501Mel cells (parental); experiment: as above; conditions: read-out: Half-maximal inhibitory concentration (IC50)
[9] = tested on: A375 cells (parental); experiment: as above; assay type: cell-based, human; conditions: read-out: Half-maximal inhibitory concentration value (IC50), Mean
[10] = tested on: IGR37-GP cells (Dabrafenib-resistant); experiment: Kinase inhibitor library screening, PrestoBlue cell viability, 1 or 10 μM, 72 h; conditions: IGR37 GP
[11] = tested on: 501Mel cells (parental); experiment: as above; conditions: 501Mel Parental
How it was run: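 Each compound was applied to parental melanoma cells and to derivatives made resistant to Vemurafenib or Dabrafenib. After treatment, viability was read with PrestoBlue on a plate reader and expressed as % of untreated cells, with each line run at least in duplicate.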

[12] = tested on: A375-GP cells (Dabrafenib-resistant); experiment: as above; conditions: A375 GP
[13] = tested on: A375-XP cells (Vemurafenib-resistant); experiment: as above; conditions: A375 XP
[14] = tested on: IGR37 cells (parental); experiment: as above; conditions: IGR37 Parental
[15] = tested on: A375 cells (parental); experiment: as above; conditions: A375 Parental
[16] = tested on: IGR37-XP cells (Vemurafenib-resistant); experiment: as above; conditions: IGR37 XP
[17] = tested on: 501Mel-GP cells (Dabrafenib-resistant); experiment: as above; conditions: 501Mel GP
[18] = tested on: 501Mel-XP cells (Vemurafenib-resistant); experiment: as above; conditions: 501Mel XP
[19] = tested on: NHDF (normal human dermal fibroblasts); experiment: Dose-response curves and IC50 in non-cancer cells, cell viability, 72 h; conditions: fibroblasts (NHDF)
Procedure: (§1) The IC50 values (nM) were calculated as indicated in Methods.

[20] = tested on: NHEM (normal human epidermal melanocytes); experiment: as above; conditions: melanocytes (NHEM)
Procedure: as §1

[21] = tested on: A375 cells; experiment: Synergy determination with the Chou-Talalay method (CompuSyn), cell viability 72 h; assay type: cell-based, human; conditions: 72 h cell viability, Chou-Talalay / Synergyfinder
Procedure: The Chou-Talalay method to determine possible synergistic effects of selected kinase inhibitor combinations was used as described in [19]. […] Cells were treated with either single inhibitors or combinations thereof at indicated amounts in technical triplicates. The amounts were pre-determined from each inhibitor’s IC50 value and inhibitors were assayed in a defined dilution series and at constant ratio when combined. […] Combination Index (CI) values showing either synergy (< 1) or antagonism (> 1) were calculated with the CompuSyn software (ComboSyn, Inc).

[22] = Homo sapiens, A-375, n.e. = did not suppress growth below 50% in the tested concentration range
[23] = IGR37-GP (Dabrafenib-resistant), 72 h cell viability
[24] = IGR37-XP (Vemurafenib-resistant), 72 h cell viability
[25] = 501Mel-XP (Vemurafenib-resistant), 72 h cell viability
[26] = 501Mel-GP (Dabrafenib-resistant), 72 h cell viability
[27] = IGR37 parental, 72 h cell viability
[28] = 501Mel parental, 72 h cell viability
[29] = n.e. = did not suppress growth below 50% in the tested concentration range

NC1(c2ccc(-c3nc4ccn5c(=O)[nH]nc5c4cc3-c3ccccc3)cc2)CCC1 [MK-2206]
IC50 ([1]; Homo sapiens, 72 h): 4.73 µM | IC50 ([2]; Homo sapiens, 72 h): 5.08 µM | IC50 ([3]; Homo sapiens, 72 h): 2.23 µM | IC50 ([4]; Homo sapiens, 72 h): 4.36 µM | IC50 ([5]; Homo sapiens): 6.43 µM | IC50 ([6]; Homo sapiens): 3.38 µM | IC50 ([7]; Homo sapiens, IGR-37, 72 h): 4.75 µM | IC50 ([8]; Homo sapiens, 72 h): 4.55 µM | IC50 [9, 22]: 7.8 µM

CCS(=O)(=O)Nc1ccc2c(c1)/C(=C(/Nc1ccc(CN3CCCCC3)cc1)c1ccccc1)C(=O)N2 [Hesperadin, reference compound]
IC50 ([1]; Homo sapiens, 72 h): 1.03 µM | cell viability (kinase inhibitor library screening) ([10]; 1μΜ, 72 h): 52.6% | cell viability (kinase inhibitor library screening) ([10]; 10μΜ, 72 h): 12.7% | cell viability (kinase inhibitor library screening) ([11]; 1μΜ, 72 h): 45.1% | cell viability (kinase inhibitor library screening) ([11]; 10μΜ, 72 h): 33.5% | cell viability (kinase inhibitor library screening) ([12]; 1μΜ, 72 h): 13.0% | cell viability (kinase inhibitor library screening) ([12]; 10μΜ, 72 h): 9.9% | cell viability (kinase inhibitor library screening) ([13]; 1μΜ, 72 h): 13.3% | cell viability (kinase inhibitor library screening) ([13]; 10μΜ, 72 h): 3.7% | cell viability (kinase inhibitor library screening) ([14]; 1μΜ, 72 h): 56.8% | cell viability (kinase inhibitor library screening) ([14]; 10μΜ, 72 h): 48.6% | cell viability (kinase inhibitor library screening) ([15]; 10μΜ, 72 h): 1.9% | cell viability (kinase inhibitor library screening) ([15]; 1μΜ, 72 h): 7.5% | cell viability (kinase inhibitor library screening) ([16]; 1μΜ, 72 h): 35.1% | cell viability (kinase inhibitor library screening) ([16]; 10μΜ, 72 h): 2.0% | cell viability (kinase inhibitor library screening) ([17]; 1μΜ, 72 h): 81.7% | cell viability (kinase inhibitor library screening) ([17]; 10μΜ, 72 h): 46.9% | cell viability (kinase inhibitor library screening) ([18]; 1μΜ, 72 h): 70.7% | cell viability (kinase inhibitor library screening) ([18]; 10μΜ, 72 h): 3.6% | IC50 ([2]; Homo sapiens, 72 h): 0.77 µM | IC50 ([7]; Homo sapiens, IGR-37, 72 h): 0.339 µM

Nc1cc(C(F)(F)F)c(-c2cc(N3CCOCC3)nc(N3CCOCC3)n2)cn1 [BKM120]
IC50 [1, 23]: 1.52 µM | IC50 [2, 24]: 1.16 µM | IC50 [3, 25]: 0.818 µM | IC50 [4, 26]: 0.919 µM | IC50 [5]: 0.788 µM | IC50 [6]: 1 µM | IC50 [7, 27]: 0.916 µM | IC50 [8, 28]: 1.17 µM | IC50 [9, 29]: 0.951 µM

Cc1ccc(C(=O)Nc2cccc(C(F)(F)F)c2)cc1Nc1nc(-c2cccnc2)nc2c1cnn2C [NVP-BHG712, reference compound]
IC50 [1, 23]: 7.02 µM | cell viability (kinase inhibitor library screening) ([10]; 1μΜ, in %): 97.4 | cell viability (kinase inhibitor library screening) ([10]; 10μΜ, in %): 51.2 | cell viability (kinase inhibitor library screening) ([11]; 1μΜ, in %): 103.2 | cell viability (kinase inhibitor library screening) ([11]; 10μΜ, in %): 27.8 | cell viability (kinase inhibitor library screening) ([12]; 1μΜ, in %): 80.6 | cell viability (kinase inhibitor library screening) ([12]; 10μΜ, in %): 37.1 | cell viability (kinase inhibitor library screening) ([13]; 1μΜ, in %): 84.7 | cell viability (kinase inhibitor library screening) ([13]; 10μΜ, in %): 29.1 | cell viability (kinase inhibitor library screening) ([14]; 1μΜ, in %): 107.5 | cell viability (kinase inhibitor library screening) ([14]; 10μΜ, in %): 83.5 | cell viability (kinase inhibitor library screening) ([15]; 1μΜ, in %): 103.3 | cell viability (kinase inhibitor library screening) ([15]; 10μΜ, in %): 63.1 | cell viability (kinase inhibitor library screening) ([16]; 1μΜ, in %): 103.3 | cell viability (kinase inhibitor library screening) ([16]; 10μΜ, in %): 17.6 | cell viability (kinase inhibitor library screening) ([17]; 1μΜ, in %): 107.1 | cell viability (kinase inhibitor library screening) ([17]; 10μΜ, in %): 25.6 | cell viability (kinase inhibitor library screening) ([18]; 1μΜ, in %): 121.0 | cell viability (kinase inhibitor library screening) ([18]; 10μΜ, in %): 2.2 | IC50 [2, 24]: 5.95 µM | IC50 [3, 25]: 3.82 µM | IC50 [4, 26]: 4.88 µM | IC50 [5]: 1.91 µM | IC50 [6]: 3.2 µM | IC50 [7, 27]: 5.78 µM | IC50 [8, 28]: 4.48 µM | IC50 [9, 29]: 4.42 µM

CC(C)(C)c1nc(-c2cccc(NS(=O)(=O)c3c(F)cccc3F)c2F)c(-c2ccnc(N)n2)s1 [Dabrafenib]
Half-maximal inhibitory concentration value (IC50), Mean [5]: n.e. | Half-maximal inhibitory concentration value (IC50), Mean [6]: n.e. | effect on healthy cells, cell viability (in words) [19]: did not have any effect | effect on healthy cells, cell viability (in words) [20]: did not have any effect | IC50 [9, 22]: 0.0019 µM

C[C@@H](Oc1cc(-c2cnn(C3CCNCC3)c2)cnc1N)c1c(Cl)ccc(F)c1Cl [Crizotinib]
IC50 ([1]; Homo sapiens, 72 h): 6.75 µM | IC50 ([2]; Homo sapiens, 72 h): 5.94 µM | IC50 ([3]; Homo sapiens, 72 h): 1.35 µM | IC50 ([4]; Homo sapiens, 72 h): 3.28 µM | IC50 ([5]; Homo sapiens): 5.09 µM | IC50 ([6]; Homo sapiens): 5.14 µM | IC50 ([7]; Homo sapiens, IGR-37, 72 h): 6.89 µM | IC50 ([8]; Homo sapiens, 72 h): 6.52 µM | IC50 [9, 22]: 5.55 µM

Cc1ccc(C(=O)Nc2ccc(CN3CCN(C)CC3)c(C(F)(F)F)c2)cc1C#Cc1cnc2cccnn12 [Ponatinib]
IC50 ([1]; Homo sapiens, 72 h): 1.35 µM | IC50 ([2]; Homo sapiens, 72 h): 1.43 µM | IC50 ([3]; Homo sapiens, 72 h): 1.34 µM | synergistic effects with the BRAF inhibitors Vemurafenib and/or Dabrafenib (in words) [21]: did not act synergistically | IC50 ([4]; Homo sapiens, 72 h): 1.4 µM | IC50 ([5]; Homo sapiens): 0.226 µM | IC50 ([6]; Homo sapiens): 0.177 µM | IC50 ([7]; Homo sapiens, IGR-37, 72 h): 1.07 µM | IC50 ([8]; Homo sapiens, 72 h): 1.17 µM | IC50 [9, 22]: 0.628 µM

O=C(O)c1ccc2c(c1)nc(Nc1cccc(Cl)c1)c1ccncc12 [cx-4945]
IC50 ([1]; Homo sapiens, 72 h): 9.09 µM | IC50 ([2]; Homo sapiens, 72 h): 6.1 µM | IC50 ([3]; Homo sapiens, 72 h): 4.65 µM | IC50 ([4]; Homo sapiens, 72 h): 4.94 µM | IC50 ([5]; Homo sapiens): 5.34 µM | IC50 ([6]; Homo sapiens): 5.21 µM | IC50 ([7]; Homo sapiens, IGR-37, 72 h): 6.66 µM | IC50 ([8]; Homo sapiens, 72 h): 7.17 µM | IC50 [9, 22]: 5.62 µM

CCc1cnn2c(NCc3ccc[n+]([O-])c3)cc(N3CCCC[C@H]3CCO)nc12 [Dinaciclib]
IC50 ([1]; Homo sapiens, 72 h): 0.0136 µM | IC50 ([2]; Homo sapiens, 72 h): 0.0102 µM | IC50 ([3]; Homo sapiens, 72 h): 0.011 µM | IC50 ([4]; Homo sapiens, 72 h): 0.011 µM | IC50 ([7]; Homo sapiens, IGR-37, 72 h): 0.0082 µM | IC50 ([8]; Homo sapiens, 72 h): 0.012 µM

COc1cc(OC)c(/C=C/S(=O)(=O)Cc2ccc(OC)c(NCC(=O)O)c2)c(OC)c1 [Rigosertib]
IC50 ([1]; Homo sapiens, 72 h): 0.09 µM | IC50 ([2]; Homo sapiens, 72 h): 0.121 µM | IC50 ([3]; Homo sapiens, 72 h): 0.063 µM | synergistic effects with the BRAF inhibitors Vemurafenib and/or Dabrafenib (in words) [21]: did not act synergistically | IC50 ([4]; Homo sapiens, 72 h): 0.07 µM | IC50 ([5]; Homo sapiens): 0.05 µM | IC50 ([6]; Homo sapiens): 0.059 µM | IC50 ([7]; Homo sapiens, IGR-37, 72 h): 0.103 µM | IC50 ([8]; Homo sapiens, 72 h): 0.08 µM | IC50 [9, 22]: 0.064 µM

CNC(=O)c1cc(Oc2ccc(NC(=O)Nc3ccc(Cl)c(C(F)(F)F)c3)cc2)ccn1 [Sorafenib]
IC50 ([1]; Homo sapiens, 72 h): 9.52 µM | IC50 ([2]; Homo sapiens, 72 h): 10 µM | IC50 ([3]; Homo sapiens, 72 h): 5.43 µM | IC50 ([4]; Homo sapiens, 72 h): 6.94 µM | IC50 ([5]; Homo sapiens): 2.5 µM | IC50 ([6]; Homo sapiens): 4.54 µM | IC50 ([7]; Homo sapiens, IGR-37, 72 h): 7.31 µM | IC50 ([8]; Homo sapiens, 72 h): 7.04 µM | IC50 [9, 22]: 5.11 µM
